Test results from patent US6340670B1, “Acetal benzylmaltosides as inhibitors of smooth muscle cell proliferation” (American Home Products Corporation, priority 1998, dated 2002).
pIC50: −log10 of the molar value.

How the values were obtained:
[1] = test system: Porcine Smooth Muscle Cell; assay: Effects of Compounds on Cell Proliferation Using 3H Thymidine Incorporation; format: cell-based; conditions: Sus scrofa, serum/growth factor stimulated cells, 24-36 h incubation, read-out: Porcine Smooth Muscle Cell Antiproliferation IC50
How it was run: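 Early-passage (3-7) sub-confluent smooth muscle cells, serum-starved 24-48 h, were stimulated with growth factor or serum and treated with compound (1 to 100 μM, from 50% ethanol stock) for 24-36 h at 37° C. Proliferation by ^3H-thymidine incorporation into TCA-insoluble material, triplicate, relative to maximally stimulated cells (100%); given as IC50 or % inhibition.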

Compound	pIC50 [1]	melting point
COc1ccc(CC(=O)OCC2OC(OCc3ccc(Cl)c(NC(C)=O)c3)C(O)C(O)C2OC2OC3COC(c4ccccc4)OC3C(O)C2O)cc1OC (stereo not drawn) [Example 52, (3,4-Dimethoxy-phenyl)-acetic acid 6-(3-acetylamino-4-chloro-benzyloxy)-3-(7,8-dihydroxy-2-phenyl-hexahydro-pyrano[3,2-d][1,3]dioxin-6-yloxy)-4,5-dihydroxy-tetrahydro-pyran-2-ylmethyl ester]	7.32	> 116 °C (dec.)
COc1ccc(CC(=O)OCC2OC(OCc3ccc(Cl)c(NC(C)=O)c3)C(OC(C)=O)C(OC(C)=O)C2OC2OC3COC(c4ccccc4)OC3C(OC(C)=O)C2OC(C)=O)cc1OC (stereo not drawn) [Example 53, (3,4-Dimethoxy-phenyl)-acetic acid 4,5-diacetoxy-6-(3-acetylamino-4-chloro-benzyloxy)-3-(7,8-diacetoxy-2-phenyl-hexahydro-pyrano[3,2-d][1,3]dioxin-6-yloxy)-tetrahydro-pyran-2-ylmethyl ester]	6.58	> 98 °C (dec.)
CC(=O)Nc1cc(COC2OC(COC(=O)c3cccnc3)C(OC3OC4COC(c5ccccc5)OC4C(OC(C)=O)C3OC(C)=O)C(OC(C)=O)C2OC(C)=O)ccc1Cl (stereo not drawn) [Example 55, Nicotinic acid 4,5-diacetoxy-6-(3-acetylamino-4-chloro-benzyloxy)-3-(7,8-diacetoxy-2-phenyl-hexahydro-pyrano[3,2-d][1,3]dioxin-6-yloxy)-tetrahydro-pyran-2-ylmethyl ester]	6.52	> 112 °C (dec.)
